Results on seven compounds are retold here after PubChem BioAssay (NCI).

Common to all, as to test: DTP human tumour cell line panel, 48 h
Test [1] concerns ACHN renal.
Test [2] deals with COLO 205 colon.
In test [3] the test system is EKVX NSCLC.
In test [4] the test system is HOP-92 NSCLC.
Test [5] concerns MALME-3M melanoma.
Test [6] relates to MCF7 breast.
The subject of test [7] is MDA-N.
In test [8] the test system is NCI-H226 lung.
For test [9], the system named is OVCAR-4 ovarian.
In test [10] the test system is PC-3 prostate.
Test [11] concerns SF-268 CNS.
Test [12] deals with SNB-19 CNS.
Test [13] concerns T-47D breast.
In test [14] the test system is UACC-257 melanoma.
Test [15] has as its system UO-31 renal.
Test [16] concerns SW-620 colon.

Structures are written as SMILES.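 Following 48 hours of exposure in 96-well plates, responses at five concentrations were used to interpolate endpoints linearly. TGI: total growth inhibition.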

On to `Clc1ccccc1/C=C/c1nsc(/C=C/c2ccccc2Cl)n1`, for which the total growth inhibition concentration (TGI) in test [1], in test [2], in [3], in test [4], in test [5] and in test [6] was greater than 100 µM each time. Besides, the total growth inhibition concentration (TGI) in test [7], in [8], in test [9], in test [10], in [11] and in test [12] was greater than 100 µM each time. Moreover, the concentration for total growth inhibition (TGI) (usually the concentration giving total growth inhibition) in [13] was 42.8 µM; in test [14], 64.1 µM; in [15], greater than 100 µM.
Regarding `CCCCCCCCCCCCCCCC(=O)ON1C(=S)NC(C)(c2ccccc2)C1=S` (stereo not given), the concentration for total growth inhibition (TGI) in test [1], in [2], in test [3], in test [4], in test [5] and in test [6] was greater than 100 µM each time. The TGI in [7], in test [8], in [9], in test [10], in test [11] and in [12] was greater than 100 µM throughout. In addition, the concentration for total growth inhibition (TGI) in test [13], in test [14] and in [15] was greater than 100 µM throughout.
Consider `COC(=O)c1ccc2c(c1)CC1(C2)Cc2cc3c(c(C(=O)OC)c2C1)CCCC3` (stereo not given), for which the TGI in test [1], in test [2], in [3], in test [4], in test [5] and in test [6] was greater than 100 µM in each case. The TGI in test [7], in [8], in test [9], in test [10], in [11] and in [16] was greater than 100 µM throughout. The total growth inhibition concentration (TGI) in [13], in test [14] and in [15] was greater than 100 µM in each case.
`COc1ccc(NC(=O)CC(=O)n2nc(C)c(N=Nc3ccc(C)c(C)c3)c2C)cc1`: the total growth inhibition concentration (TGI) in [1] is greater than 100 µM; in test [2], greater than 100 µM; in test [3], 52 µM; in [4], 65.9 µM; in [5] it was greater than 100 µM; in test [6], greater than 100 µM. Moreover, the TGI in test [7], in test [8], in test [9], in test [10], in [11] and in [12] was greater than 100 µM throughout. Further, the total growth inhibition concentration (TGI) in [16] is greater than 100 µM; in [13], greater than 100 µM; in test [15], 54.8 µM.
In the case of `CC(CC(=O)CO[C@H]1[C@H](O)[C@@H](O)[C@@H](O)[C@@H]2NC(=O)c3c(cc4c(c3O)OCO4)[C@H]21)OC1OC(CO)C(O)C(O)C1O` (stereo not given in full), the TGI was 2.6 µM in [1]; 1.16 µM in test [2]; 3.46 µM in test [3]; 4.57 µM in [4]; 3.16 µM in test [5]; 1.47 µM in [6]. The TGI in test [7] was determined as 3.91 µM; in test [8], 3.54 µM; in [9] it was 1.27 µM; in [10], 1.48 µM; in test [11], 3.81 µM; in test [12], 7.89 µM. The TGI in test [13] came to 0.894 µM; in test [14] it was 6.19 µM; in test [15], 8.11 µM.
For `O=C(O)c1cccc(S(=O)(=O)NN2C(=O)CSC2c2ccccc2)c1` (stereo not given), the TGI in test [1], in test [2], in test [3], in test [4], in [5] and in [6] was greater than 100 µM in each case. For the same compound, the TGI in [7], in [8], in [10], in [11], in test [12] and in test [16] was greater than 100 µM each time. Also, the TGI in [13], in [14] and in [15] was greater than 100 µM throughout.
Consider `O=C1/C(=C\c2ccc([N+](=O)[O-])cc2)Sc2scc(-c3ccc(O)c(O)c3)[n+]21`, for which the concentration for total growth inhibition (TGI) in [1] worked out at 47.5 µM; in test [2] it was 6.07 µM; in test [3], 31.6 µM; in [4], 31.8 µM; in [6], 15.3 µM; in test [7] it was 25.6 µM. Further, the TGI in test [8] is greater than 100 µM; in test [9], 24.7 µM; in test [10], 19.4 µM; in test [11], 21 µM; in test [12], 74 µM; in test [16], 15 µM. Besides, the figures for the TGI in test [13], in [14] and in test [15] were 54.6 µM, 22.6 µM and 22.3 µM, respectively.
